In the NIST ThermoML archive (doi:10.1016/j.jct.2007.09.011):

How the values were obtained:
[1] = refractive index (Na D-line) (dimensionless); details: 298.15 K; 101.33 kPa; Liquid
[2] = 101 kPa, Liquid
[3] = refractive index (Na D-line) (dimensionless); xn = mol fraction of the nth substance listed; details: 298.15 K, 101 kPa, Liquid
[4] = xn = mol fraction of the nth substance listed; details: 101 kPa, Liquid

CCCCCCCC[n+]1ccn(C)c1.F[B-](F)(F)F [1-methyl-3-octylimidazolium tetrafluoroborate]
Details | refractive index
[1] | 1.4319

[2]
Details | mass density [kg/m3]
298.15 K | 1101.08
308.15 K | 1094.13
318.15 K | 1087.24

CCCCCCCC[n+]1ccn(C)c1.F[B-](F)(F)F [1-methyl-3-octylimidazolium tetrafluoroborate] + COCCO
[3]
Details | refractive index
x1 = 0.0106 | 1.4015
x1 = 0.0477 | 1.4057
x1 = 0.1083 | 1.4108
x1 = 0.1495 | 1.4134
x1 = 0.2062 | 1.4163
x1 = 0.2827 | 1.4193
x1 = 0.3204 | 1.4208
x1 = 0.542 | 1.4258
x1 = 0.7354 | 1.4285
x1 = 0.9632 | 1.4312
x1 = 0.9929 | 1.4318
x1 = 1 | 1.4319

mass density [kg/m3], [4]
Details | 298.15 K | 308.15 K | 318.15 K
x1 = 0.0106 | 965.72 | 956.59 | 947.31
x1 = 0.0477 | 983.08 | 974.21 | 965.56
x1 = 0.1083 | 1004.86 | 996.43 | 987.84
x1 = 0.1495 | 1016.31 | 1007.97 | 999.62
x1 = 0.2062 | 1029.2 | 1021.09 | 1012.99
x1 = 0.2827 | 1042.98 | 1035.09 | 1027.25
x1 = 0.3204 | 1048.69 | 1041.05 | 1033.14
x1 = 0.542 | 1073.51 | 1066.16 | 1058.83
x1 = 0.7354 | 1087.07 | 1079.83 | 1072.61
x1 = 0.9632 | 1098.9 | 1092.03 | 1085.14
x1 = 0.9929 | 1098.25 | 1091.42 | 1084.47
x1 = 1 | 1101.08 | 1094.13 | 1087.24

CCCCCCCC[n+]1ccn(C)c1.F[B-](F)(F)F [1-methyl-3-octylimidazolium tetrafluoroborate] + COCCOCCO
Details | refractive index
[3], x1 = 1 | 1.4319

CCCCCCCC[n+]1ccn(C)c1.F[B-](F)(F)F [1-methyl-3-octylimidazolium tetrafluoroborate] + COCCOCCOCCO
Details | refractive index
[3], x1 = 1 | 1.4319

[4], x1 = 1
Details | mass density [kg/m3]
298.15 K | 1101.08
308.15 K | 1094.13
318.15 K | 1087.24

COCCOCCO [2-(2-methoxyethoxy)ethanol]
Details | refractive index
[1] | 1.4242

[2]
Details | mass density [kg/m3]
298.15 K | 1014.87
308.15 K | 1005.99

COCCOCCO [2-(2-methoxyethoxy)ethanol] + CCCCCCCC[n+]1ccn(C)c1.F[B-](F)(F)F
[3]
Details | refractive index
x2 = 0 | 1.4242
x2 = 0.0088 | 1.4227
x2 = 0.0165 | 1.4251
x2 = 0.0745 | 1.4271
x2 = 0.1611 | 1.4288
x2 = 0.2555 | 1.4298
x2 = 0.3459 | 1.4304
x2 = 0.4603 | 1.4308
x2 = 0.6468 | 1.4312
x2 = 0.8198 | 1.4314
x2 = 0.9227 | 1.4317
x2 = 0.9912 | 1.4318

mass density [kg/m3], [4]
Details | 298.15 K | 308.15 K | 318.15 K
x2 = 0 | 1014.87 | 1005.99 | –
x2 = 0.0088 | 1017.27 | 1008.44 | 999.55
x2 = 0.0165 | 1019.28 | 1010.49 | 1001.65
x2 = 0.0745 | 1032.37 | 1023.86 | 1015.33
x2 = 0.1611 | 1046.73 | 1038.56 | 1030.36
x2 = 0.2555 | 1058.05 | 1050.15 | 1042.23
x2 = 0.3459 | 1066.48 | 1058.76 | 1051.05
x2 = 0.4603 | 1075.27 | 1067.73 | 1060.25
x2 = 0.6468 | 1086.77 | 1079.5 | 1072.31
x2 = 0.8198 | 1094.83 | 1087.77 | 1080.74
x2 = 0.9227 | 1098.58 | 1091.61 | 1084.65
x2 = 0.9912 | 1100.8 | 1093.85 | 1086.95

COCCOCCOCCO [2-[2-(2-methoxyethoxy)ethoxy]ethanol]
Details | refractive index
[1] | 1.4362

[2]
Details | mass density [kg/m3]
298.15 K | 1044.91
308.15 K | 1036.11
318.15 K | 1027.28

COCCOCCOCCO [2-[2-(2-methoxyethoxy)ethoxy]ethanol] + CCCCCCCC[n+]1ccn(C)c1.F[B-](F)(F)F
[3]
Details | refractive index
x2 = 0 | 1.4362
x2 = 0.0122 | 1.4364
x2 = 0.0223 | 1.4366
x2 = 0.0994 | 1.4372
x2 = 0.2073 | 1.4373
x2 = 0.3192 | 1.4369
x2 = 0.42 | 1.4361
x2 = 0.5301 | 1.4352
x2 = 0.7153 | 1.4334
x2 = 0.8449 | 1.4325
x2 = 0.9395 | 1.4321
x2 = 0.992 | 1.432

mass density [kg/m3], [4]
Details | 298.15 K | 308.15 K | 318.15 K
x2 = 0 | 1044.91 | 1036.11 | 1027.28
x2 = 0.0122 | 1046.7 | 1037.94 | 1029.17
x2 = 0.0223 | 1048.13 | 1039.41 | 1030.69
x2 = 0.0994 | 1057.7 | 1049.21 | 1040.84
x2 = 0.2073 | 1067.89 | 1059.71 | 1051.67
x2 = 0.3192 | 1075.71 | 1067.81 | 1060
x2 = 0.42 | 1081.2 | 1073.51 | 1065.88
x2 = 0.5301 | 1086.14 | 1078.64 | 1071.18
x2 = 0.7153 | 1093.01 | 1085.74 | 1078.58
x2 = 0.8449 | 1097.08 | 1089.95 | 1082.96
x2 = 0.9395 | 1099.66 | 1092.63 | 1085.72
x2 = 0.992 | 1100.9 | 1093.94 | 1087.05

COCCO [2-methoxyethan-1-ol]
Details | refractive index
[1] | 1.4004

[2]
Details | mass density [kg/m3]
298.15 K | 960.05
308.15 K | 950.81
318.15 K | 941.45

COCCO [2-methoxyethan-1-ol] + CCCCCCCC[n+]1ccn(C)c1.F[B-](F)(F)F
Details | refractive index
[3], x2 = 0 | 1.4004

[4], x2 = 0
Details | mass density [kg/m3]
298.15 K | 960.05
308.15 K | 950.81
318.15 K | 941.45
